Values quoted from earlier work, collected in the CATMoS acute toxicity set (Mansouri et al. 2021).

Assay: rat acute oral toxicity
Settings: in vivo

SMILES	LD50 [mg/kg]
CCCCNS(=O)(=O)c1ccccc1	2050
COc1ccccc1C=O	2500
CN(C)C(=O)CN1C(=O)C2C3C=C(C(O)(c4ccccc4)c4ccccn4)C(C3=C(c3ccccc3)c3ccccn3)C2C1=O (centres undefined)	5.9
CCN(CC)CC1CCCCN1CC(=O)N1c2ccccc2C(=O)Nc2cccnc21 (centres undefined)	1530
CN1CCC(OC(=O)C2CCc3cc(C4CCCCC4)ccc32)CC1 (centres undefined)	572
COC(N)=O	2500
C#CCCl	165
ClC(Cl)(Cl)c1cccc(C(Cl)(Cl)Cl)c1	2920
CN(C)N=Nc1cccnc1	160
Cc1noc(NS(=O)(=O)c2ccc(N)cc2)c1C	10000
CBr	214
C[C@H](Oc1ccc(Oc2nc3ccc(Cl)cc3o2)cc1)C(=O)O	2090
CCOP(=S)(OC)Oc1ccc([N+](=O)[O-])cc1 (centres undefined)	2.85
CCSCc1ccccc1OC(=O)NC	200
C=CCOC(=O)OC(=C)C(=O)OCC=C	390
CC(C)OP(=S)(OC(C)C)SCSC(C)C	5
CCOC(=O)C1=C(C)NC(C)=C(C(=O)OCCN2CCCCC2)C1c1cccc([N+](=O)[O-])c1 (centres undefined)	363
CCCCOCCOCCOC(=O)c1ccccc1C(=O)OCCOCCOCCCC	9700
CNC(N)=S	50
O=C(c1ccccc1)c1ccc2n1CC[C@H]2C(=O)O	189
CC(CCc1ccccc1)NCC(O)c1ccc(O)c(C(N)=O)c1 (centres undefined)	2110
CCCCNCC(O)COc1ccc(-c2c(-c3ccccc3)c(=O)oc3cc(OC)ccc23)cc1 (centres undefined)	500
C=CN(C(C)=O)c1ccccc1	2460
CCC(C)c1cnc2nc(N)nc(N)c2c1C (centres undefined)	100
Cc1c(O)cccc1O	200

SMILES	LD50 [mg/kg]
CCOC(=S)SCC#N	210
COC(=O)C(C)N(C(=O)c1ccccc1)c1ccc(F)c(Cl)c1 (centres undefined)	1200
CCCOC(=O)c1c[n+](C)c2n(c1=O)C(C)CCC2 (centres undefined)	1810
Clc1ccc(S/N=N/c2cc(Cl)c(Cl)cc2Cl)cc1	4000
CCCCCCCCCCCCCCOCCOCCOCCOCCOCCOCCOCCO	2600
O=C(O)Cc1ccccc1Oc1c(Cl)c(Cl)cc(Cl)c1Cl	303
CC12CCC3c4ccc(O)cc4CCC3C1CC[C@@H]2OC(=O)COC(=O)CCCc1ccc(N(CCCl)CCCl)cc1 (some centres undefined)	682
CCCCCCCCCCCCOC(=O)Cc1ccc(N(CCCl)CCCl)cc1	72
CCCCCCOC(=O)CC(C(=O)OCCCCCC)S(=O)(=O)O (centres undefined)	1750
N=c1ccn(O)cc1	75
O=C(Cn1c(=O)sc2ccc(Cl)cc21)N1CCNCC1	734
CC(C)Nc1nc(NC(C)C)nc(N(C)C#N)n1	1700
NS(=O)(=O)c1ccc(Cl)c(S(N)(=O)=O)c1	340
O=C(O)c1snc(Cl)c1Cl	1200
CCCCCCCCn1sccc1=O	550
CS(=O)(=O)c1ccccc1	1470
CCOCC(=O)Nc1ccc(C(=O)c2ccccc2)cc1C	2280
CC(CN(C)C)CN1c2ccccc2CCc2ccccc21 (centres undefined)	800
O=C(CN1CCCCC1)N1CCOc2ccccc21	200
O=C1C(=C(Cl)Cl)C(=O)C2(Cl)C3C=CC(C3)C12Cl (centres undefined)	2760
CC(=Cc1ccccc1)CC(=O)N1CCOCC1	1000
OCCN1CCN(CCC=C2c3ccccc3Sc3ccc(C(F)(F)F)cc32)CC1	791
COc1ccc2nc3c(c(N)c2c1)CCCC3	753
Clc1cccc(Cl)c1N=C1NCCN1	126
